Laboratory results taken from ChEMBL document CHEMBL5576084, “Development of chromone-thiazolidine-2,4-dione Knoevenagel conjugates as apoptosis inducing agents” (Bioorg Med Chem Lett, 2024).
Activity calls are given as the source filed them. No cut-off for these calls is given here.

How the values were obtained:
[1] = tested on: A549; test: Cytotoxicity against human A549 cells assessed as inhibition of cell growth; type: functional, cell-based
[2] = tested on: A549; test: Induction of ROS generation in human A549 cells assessed as fold change at 1.5 uM by DCFDA-H2 fluorescent dye based flow cytometric analysis relative to control; type: functional
[3] = tested on: A549; test: Induction of apoptosis in human A549 cells assessed as reduction in green intensity at 1.5 uM by acridine orange/EtBr staining based analysis; type: functional, cell-based
[4] = tested on: A549; test: Induction of apoptosis in human A549 cells assessed as increase in yellowish green intensity at 1.5 uM by acridine orange/EtBr staining based analysis; type: functional, cell-based
[5] = tested on: A549; test: Induction of apoptosis in human A549 cells assessed as increase in late apoptotic cells by measuring orange red signals at 1.5 uM by acridine orange/EtBr staining based analysis; type: functional, cell-based
[6] = tested on: A549; test: Induction of apoptosis in human A549 cells assessed as increase in necrotic cells by measuring red signals at 1.5 uM by acridine orange/EtBr staining based analysis; type: functional, cell-based
[7] = tested on: A549; test: Induction of apoptosis in human A549 cells assessed as early apoptotic cells at 1.5 uM by Annexin V-FITC/PI staining based flow cytometric analysis (reference value: 0.32 %); type: functional
[8] = tested on: A549; test: Induction of apoptosis in human A549 cells assessed as late apoptotic cells at 1.5 uM by Annexin V-FITC/PI staining based flow cytometric analysis (reference value: 0.19 %); type: functional
[9] = tested on: A549; test: Induction of apoptosis in human A549 cells assessed as necrotic cells at 1.5 uM by Annexin V-FITC/PI staining based flow cytometric analysis (reference value: 0.46 %); type: functional
[10] = tested on: A549; test: Induction of apoptosis in human A549 cells assessed as inhibition of Bcl-2 expression at 1.5 uM by PI staining based flow cytometric analysis relative to control; type: functional
[11] = tested on: A549; test: Cell cycle arrest in human A549 cells assessed as increase in G0/G1phase cell frequency at 1.5 uM by PI staining based flow cytometric analysis relative to control; type: functional
[12] = tested on: SK-MEL-28; test: Cytotoxicity against human SK-MEL-28 cells assessed as inhibition of cell growth incubated for 48 hrs by MTT assay; type: functional, cell-based; details: SK-MEL-28, 48 h
[13] = tested on: A549; test: Cytotoxicity against human A549 cells assessed as inhibition of cell growth incubated for 48 hrs by MTT assay; type: functional, cell-based; details: A549, 48 h
[14] = tested on: HepG2; test: Cytotoxicity against human HepG2 cells assessed as inhibition of cell growth incubated for 48 hrs by MTT assay; type: functional, cell-based; details: HepG2, 48 h
[15] = tested on: MCF7; test: Cytotoxicity against human MCF7 cells assessed as inhibition of cell growth incubated for 48 hrs by MTT assay; type: functional, cell-based; details: MCF7, 48 h
[16] = tested on: HCT-116; test: Cytotoxicity against human HCT-116 cells assessed as inhibition of cell growth incubated for 48 hrs by MTT assay; type: functional, cell-based; details: HCT-116, 48 h
[17] = Cytotoxicity against HEK293 cells assessed as inhibition of cell growth incubated for 48 hrs by MTT assay; type: toxicity, cell-based; details: human
[18] = tested on: A549; test: Induction of ROS generation in human A549 cells assessed as fold change at 3 uM by DCFDA-H2 fluorescent dye based flow cytometric analysis relative to control; type: functional
[19] = tested on: A549; test: Induction of ROS generation in human A549 cells assessed as fold change at 6 uM by DCFDA-H2 fluorescent dye based flow cytometric analysis relative to control; type: functional
[20] = tested on: A549; test: Induction of ROS generation in human A549 cells assessed as fold change at 9 uM by DCFDA-H2 fluorescent dye based flow cytometric analysis relative to control; type: functional
[21] = tested on: A549; test: Induction of DNA damage in human A549 cells assessed as DNA condensation by measuring increase in fluorescence intensity at 3 to 9 uM by DAPI staining based fluorescence microscopic analysis; type: functional, cell-based; details: dose 3-9 µM
[22] = tested on: A549; test: Induction of apoptosis in human A549 cells assessed as appearance of shrunken cells with fragmented nucleus at 3 to 9 uM by DAPI staining based fluorescence microscopic analysis; type: functional, cell-based; details: dose 3-9 µM
[23] = tested on: A549; test: Induction of DNA damage in human A549 cells assessed as decrease in green fluorescence at 3 to 9 uM by acridine orange/EtBr staining based analysis; type: functional, cell-based; details: dose 3-9 µM
[24] = tested on: A549; test: Induction of DNA damage in human A549 cells assessed as increase in red fluorescence at 3 to 9 uM by acridine orange/EtBr staining based analysis; type: functional, cell-based; details: dose 3-9 µM
[25] = tested on: A549; test: Induction of apoptosis in human A549 cells assessed as reduction in green intensity at 3 to 9 uM by acridine orange/EtBr staining based analysis; type: functional, cell-based; details: dose 3-9 µM
[26] = tested on: A549; test: Induction of apoptosis in human A549 cells assessed as increase in yellowish green intensity at 3 to 9 uM by acridine orange/EtBr staining based analysis; type: functional, cell-based; details: dose 3-9 µM
[27] = tested on: A549; test: Induction of apoptosis in human A549 cells assessed as increase in late apoptotic cells by measuring orange red signals at 3 to 9 uM by acridine orange/EtBr staining based analysis; type: functional, cell-based; details: dose 3-9 µM
[28] = tested on: A549; test: Induction of apoptosis in human A549 cells assessed as increase in necrotic cells by measuring red signals at 3 to 9 uM by acridine orange/EtBr staining based analysis; type: functional, cell-based; details: dose 3-9 µM
[29] = tested on: A549; test: Induction of apoptosis in human A549 cells assessed as early apoptotic cells at 3 uM by Annexin V-FITC/PI staining based flow cytometric analysis (reference value: 0.32 %); type: functional
[30] = tested on: A549; test: Induction of apoptosis in human A549 cells assessed as late apoptotic cells at 3 uM by Annexin V-FITC/PI staining based flow cytometric analysis (reference value: 0.19 %); type: functional
[31] = tested on: A549; test: Induction of apoptosis in human A549 cells assessed as necrotic cells at 3 uM by Annexin V-FITC/PI staining based flow cytometric analysis (reference value: 0.46 %); type: functional
[32] = tested on: A549; test: Induction of apoptosis in human A549 cells assessed as early apoptotic cells at 6 uM by Annexin V-FITC/PI staining based flow cytometric analysis (reference value: 0.32 %); type: functional
[33] = tested on: A549; test: Induction of apoptosis in human A549 cells assessed as late apoptotic cells at 6 uM by Annexin V-FITC/PI staining based flow cytometric analysis (reference value: 0.19 %); type: functional
[34] = tested on: A549; test: Induction of apoptosis in human A549 cells assessed as necrotic cells at 6 uM by Annexin V-FITC/PI staining based flow cytometric analysis (reference value: 0.46 %); type: functional
[35] = tested on: A549; test: Induction of apoptosis in human A549 cells assessed as early apoptotic cells at 9 uM by Annexin V-FITC/PI staining based flow cytometric analysis (reference value: 0.32 %); type: functional
[36] = tested on: A549; test: Induction of apoptosis in human A549 cells assessed as late apoptotic cells at 9 uM by Annexin V-FITC/PI staining based flow cytometric analysis (reference value: 0.19 %); type: functional
[37] = tested on: A549; test: Induction of apoptosis in human A549 cells assessed as necrotic cells at 9 uM by Annexin V-FITC/PI staining based flow cytometric analysis (reference value: 0.46 %); type: functional
[38] = tested on: A549; test: Induction of apoptosis in human A549 cells assessed as reduction in Bcl-2 expression at 3 uM by PI staining based flow cytometric analysis relative to control; type: functional; parameters: scale not given: the % may be the effect or the level left
[39] = tested on: A549; test: Induction of apoptosis in human A549 cells assessed as reduction in Bcl-2 expression at 6 uM by PI staining based flow cytometric analysis relative to control; type: functional; parameters: scale not given: the % may be the effect or the level left
[40] = tested on: A549; test: Induction of apoptosis in human A549 cells assessed as reduction in Bcl-2 expression at 9 uM by PI staining based flow cytometric analysis relative to control; type: functional; parameters: scale not given: the % may be the effect or the level left
[41] = tested on: A549; test: Cell cycle arrest in human A549 cells assessed as accumulation of cells at G2/M phase at 3 uM by PI staining based flow cytometric analysis (reference value: 11.5 %); type: functional
[42] = tested on: A549; test: Cell cycle arrest in human A549 cells assessed as accumulation of cells at G2/M phase at 6 uM by PI staining based flow cytometric analysis (reference value: 11.5 %); type: functional
[43] = tested on: A549; test: Cell cycle arrest in human A549 cells assessed as accumulation of cells at G2/M phase at 9 uM by PI staining based flow cytometric analysis (reference value: 11.5 %); type: functional

With `CC1(C)CCC(CN2CCN(c3ccc(C(=O)NS(=O)(=O)c4ccc(NCC5CCOCC5)c([N+](=O)[O-])c4)c(Oc4cnc5[nH]ccc5c4)c3)CC2)=C(c2ccc(Cl)cc2)C1` [VENETOCLAX] the IC50 [1] was 1.5 µM, the “fold change (FC)” value [2] was 9.53 and the Activity [3] was “Active”. The Activity [4] was “Active”, the Activity [5] was “Active” and the Activity [6] was “Active”. For the same molecule, the Activity [7] was 1.5%, the Activity [8] was 4.9% and the Activity [9] was 5.5%. The inhibition at 1.5 µM [10] was 61.7% and the Activity [11] was 6.9%.
For `COc1ccc(C(=O)CN2C(=O)S/C(=C\c3coc4cc(Br)ccc4c3=O)C2=O)cc1`, the IC50 [12] was over 10 µM, the IC50 [13] was 6.1 µM and the IC50 [14] was over 10 µM. The IC50 [15] was 8.9 µM, the IC50 [16] was over 10 µM and the IC50 at 48 h [17] was 14.1 µM. The “fold change (FC)” value [18] was 1.07, the “fold change (FC)” value [19] was 1.4 and the “fold change (FC)” value [20] was 8.9. For the same molecule, the Activity [21] was “Active”, the Activity [22] was “Active” and the Activity [23] was “Active”. For the same molecule, the Activity [24] was “Active”, the Activity [25] was “Active” and the Activity [26] was “Active”. The Activity [27] was “Active”, the Activity [28] was “Active” and the Activity [29] was 1.94%. For the same molecule, the Activity [30] was 0.98%, the Activity [31] was 0.27% and the Activity [32] was 3.1%. It also gave an Activity [33] of 2.2%, an Activity [34] of 0.3% and an Activity [35] of 10.9%. It also gave an Activity [36] of 6.6%, an Activity [37] of 0.29% and an Activity [38] of 31.7%. It also gave an Activity [39] of 38.2%, an Activity [40] of 79.1% and an Activity [41] of 18.08%. It also gave an Activity [42] of 18.4% and an Activity [43] of 21.6%.
In the case of `O=C(CN1C(=O)S/C(=C\c2coc3ccc(Br)cc3c2=O)C1=O)c1ccccc1`, the IC50 [12] is reported as over 10 µM, the IC50 [13] is reported as over 10 µM and the IC50 [14] is reported as over 10 µM. The IC50 [15] was over 10 µM, the IC50 [16] was over 10 µM and the IC50 at 48 h [17] was 13.2 µM.
For `Cc1ccc(C(=O)CN2C(=O)S/C(=C\c3coc4cc(Br)ccc4c3=O)C2=O)cc1`, the IC50 [12] was over 10 µM, the IC50 [13] was 6.5 µM and the IC50 [14] was over 10 µM. It also gave an IC50 [15] of 10.1 µM, an IC50 [16] of over 10 µM and an IC50 at 48 h [17] of 15.1 µM.
Work on `O=C(CN1C(=O)S/C(=C\c2coc3ccccc3c2=O)C1=O)c1ccc(F)cc1` yielded an IC50 [12] of over 10 µM, an IC50 [13] of 8.2 µM and an IC50 [14] of over 10 µM. For the same molecule, the IC50 [15] was over 10 µM, the IC50 [16] was over 10 µM and the IC50 at 48 h [17] was 15.5 µM.
